Reference: US20130096149A1, “HETEROARYL COMPOUNDS AND COMPOSITIONS AS PROTEIN KINASE INHIBITORS” (NOVARTIS AG, priority 2010, published 2013)

Biological target: b-Raf(V600E) (Homo sapiens, UniProt P15056, V600E)
Assay: Raf/Mek Amplified Luminescence Proximity Homogeneous Assay (Alpha Screen)
Assay type: biochemical
Settings: b-Raf(V600E) approximately 4 pM; biotinylated Mek, kinase dead approximately 10 nM; ATP 10 μM; pre-incubation 60 minutes; reaction 3 hours at room temperature; read-out: mut-bRaf IC50
Description: Raf/Mek Amplified Luminescence Proximity Homogeneous Assay
Assay buffer: 50 mM Tris, pH 7.5, 15 mM MgCl2, 0.01% Bovine Serum Albumin (BSA), 1 mM dithiothreitol (DTT) Stop buffer: 60 mM ethylenediaminetetraacetic acid (EDTA), 0.01% Tween® 20 Bead buffer: 50 mM Tris, pH 7.5, 0.01% Tween® 20 […]
biotinylated Mek, kinase dead
Alpha Screen detection kit (available from PerkinElmer™, #6760617R)
Anti phospho-MEK1/2 (available from Cell Signaling Technology, Inc. #9121) 384 well assay plates (White Greiner® plates, #781207) […]
b-Raf(V600E) approximately 4 pM […]
biotinylated Mek, Kinase dead approximately 10 nM
Pre-incubation time with compounds 60 minutes at room temperature
Reaction time 1 or 3 hours at room temperature
Raf and biotinylated Mek, kinase dead, were combined at 2× final concentrations in assay buffer (50 mM Tris, pH 7.5, 15 mM MgCl2, 0.01% BSA and 1 mM DTT) and dispensed 10 μl per well in assay plates (Greiner white 384 well assay plates #781207) containing 0.5 μl of 40× of a raf kinase inhibitor test compound diluted in 100% DMSO. The plate was incubated for 60 minutes at room temperature.
The Raf kinase activity reaction was started by the addition of 10 μL per well of 2×ATP diluted in assay buffer. After 3 hours (bRaf(V600E)) or 1 hour (c-Raf), the reactions were stopped with the addition of 10 μL of stop reagent (60 mM EDTA). Phosphorylated product was measured using a rabbit anti-p-MEK (Cell Signaling, #9121) antibody and the Alpha Screen IgG (ProteinA) detection Kit (PerkinElmer #6760617R), by the addition of 30 μL to the well of a mixture of the antibody (1:2000 dilution) and detection beads (1:2000 dilution of both beads) in bead buffer (50 mM Tris, pH 7.5, 0.01% Tween20). The additions were carried out under dark conditions to protect the detection beads from light. A lid was placed on top of the plate and incubated for 1 hour at room temperature, then the luminescence was read on a PerkinElmer Envision instrument. The concentration of each compound for 50% inhibition (IC50) was calculated by non-linear regression using XL Fit data analysis software.

Sequence of b-Raf(V600E) (P15056 whole entry V600E): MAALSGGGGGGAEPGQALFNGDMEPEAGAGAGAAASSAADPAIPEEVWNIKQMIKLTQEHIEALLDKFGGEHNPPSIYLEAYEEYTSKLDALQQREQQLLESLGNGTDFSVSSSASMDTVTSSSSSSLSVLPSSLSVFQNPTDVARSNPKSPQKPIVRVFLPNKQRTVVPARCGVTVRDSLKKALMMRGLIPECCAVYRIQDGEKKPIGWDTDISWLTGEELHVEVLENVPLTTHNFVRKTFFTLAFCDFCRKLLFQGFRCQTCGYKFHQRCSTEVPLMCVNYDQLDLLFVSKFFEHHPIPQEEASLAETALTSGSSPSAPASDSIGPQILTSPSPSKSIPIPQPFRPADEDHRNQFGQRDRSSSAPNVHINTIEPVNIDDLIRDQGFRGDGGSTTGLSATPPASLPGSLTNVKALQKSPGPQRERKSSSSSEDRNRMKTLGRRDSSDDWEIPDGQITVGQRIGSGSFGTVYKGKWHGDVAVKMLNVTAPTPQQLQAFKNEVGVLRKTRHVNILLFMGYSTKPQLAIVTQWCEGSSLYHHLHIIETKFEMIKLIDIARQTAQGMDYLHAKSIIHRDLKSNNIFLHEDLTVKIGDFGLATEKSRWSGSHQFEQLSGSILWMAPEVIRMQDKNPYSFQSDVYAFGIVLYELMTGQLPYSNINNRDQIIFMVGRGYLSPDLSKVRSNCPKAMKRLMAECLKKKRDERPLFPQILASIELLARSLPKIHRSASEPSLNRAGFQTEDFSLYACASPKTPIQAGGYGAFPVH

Structure (SMILES) | IC50 [nM]
CCCS(=O)(=O)Nc1cc(Cl)cc(-c2nc(C3CC3)oc2-c2ccnc(NC[C@H](C)NC(=O)OC)n2)c1Cl [Example 57] | 0.56
CS(=O)(=O)Nc1cc(Cl)cc(-c2nc(C3CC3)oc2-c2ccnc(N)n2)c1Cl [Example 58] | 0.35
CNc1nccc(-c2oc(C3CC3)nc2-c2cc(Cl)cc(NS(C)(=O)=O)c2Cl)n1 [Example 59] | 1.5
COC(=O)N[C@@H](C)CNc1nccc(-c2oc(C3CC3)nc2-c2cc(Cl)cc(NS(C)(=O)=O)c2Cl)n1 [Example 60] | 0.46
CNc1nccc(-c2sc(C(C)(C)C)nc2-c2cc(Cl)cc(NS(C)(=O)=O)c2F)n1 [Example 61] | 0.65
CCCS(=O)(=O)Nc1cc(Cl)cc(-c2nc(C3CC3)oc2-c2ccnc(NC[C@H](C)NC(=O)OC)n2)c1F [Example 64] | 0.28

The next lines start with the values.

IC50 [nM] | Structure (SMILES)
0.28 | COC(=O)N[C@@H](C)CNc1nccc(-c2sc(C3CC3)nc2-c2cc(Cl)cc(NS(C)(=O)=O)c2Cl)n1 [Example 55]
0.022 | CCCS(=O)(=O)Nc1cc(Cl)cc(-c2nc(C3CC3)oc2-c2ccnc(N)n2)c1Cl [Example 56]
0.28 | CCCS(=O)(=O)Nc1cc(Cl)cc(-c2nc(C3CC3)oc2-c2ccnc(NC)n2)c1F [Example 62]
0.044 | CCCS(=O)(=O)Nc1cc(Cl)cc(-c2nc(C3CC3)oc2-c2ccnc(N)n2)c1F [Example 63]
0.09 | CCCS(=O)(=O)Nc1cc(Cl)cc(-c2nc(C3CC3)sc2-c2ccnc(NC[C@H](C)NC(=O)OC)n2)c1F [Example 65]
0.058 | CCCS(=O)(=O)Nc1cc(Cl)cc(-c2nc(C3CC3)sc2-c2ccnc(N)n2)c1F [Example 66]
